Experiments:
Assay type in all cases: in vivo
[1] = tested on: barnyardgrass (Echinochloa crus-galli); test: Test A pre-/postemergence plant response; details: for Barnyardgrass plant response rating: visual injury, 0 to 100 scale (0 no effect, 100 complete control), approx. ten days
Summary of the method: (§1)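 Both pre- and postemergence treatments are applied simultaneously, using chemicals formulated in a non-phytotoxic solvent mixture with surfactant. Postemergence plants are 2–10 cm high with one to two leaves. After approximately ten days in a greenhouse, injury is scored visually from 0 (none) to 100 (complete control) relative to untreated plants.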

[2] = tested on: morningglory (Ipomoea spp.); test: Test A pre-/postemergence plant response
Summary of the method: as §1

[3] = tested on: large crabgrass (Digitaria sanguinalis); test: Test A pre-/postemergence plant response; details: for Crabgrass, Large plant response rating: visual injury, 0 to 100 scale (0 no effect, 100 complete control), approx. ten days
Summary of the method: as §1

[4] = tested on: giant foxtail (Setaria faberii); test: Test A pre-/postemergence plant response
Summary of the method: as §1

[5] = tested on: pigweed (Amaranthus retroflexus); test: Test A pre-/postemergence plant response
Summary of the method: as §1

corn (Zea mays) = test: Test A pre-/postemergence plant response; details: for Corn plant response rating: visual injury, 0 to 100 scale (0 no effect, 100 complete control), approx. ten days
Summary of the method: as §1

[6] = tested on: wheat (Triticum aestivum); test: Test A pre-/postemergence plant response
Summary of the method: as §1

[7] = tested on: velvetleaf (Abutilon theophrasti); test: Test A pre-/postemergence plant response
Summary of the method: as §1

[8] = tested on: barnyardgrass (Echinochloa crus-galli); test: Test B flooded paddy test; details: for Plant response rating, Flood, Barnyardgrass: 250 g ai/ha, flooded paddy test, visual rating on 0 to 100 scale (0 no effect, 100 complete control) after 13 to 15 days; for Plant response rating, Barnyardgrass: Flood (flooded paddy test), 13 to 15 days; for Barnyardgrass plant response rating: Flood, 31 g ai/ha, scale 0 to 100 (0 no effect, 100 complete control)
Summary of the method: (§2)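 Flooded-pot test: water raised to 3 cm above soil when treating, compound put in the water, level unchanged thereafter. Plants were at 2 leaves. Readout after 13 to 15 days, visual, relative to controls; 0 signifies no effect and 100 complete control.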

[9] = tested on: ducksalad (Heteranthera limosa); test: Test B flooded paddy test; details: for Plant response rating, Flood, Ducksalad: 250 g ai/ha, flooded paddy test, visual rating on 0 to 100 scale (0 no effect, 100 complete control) after 13 to 15 days; for Plant response rating, Ducksalad: Flood (flooded paddy test), 13 to 15 days; for Ducksalad plant response rating: Flood, 31 g ai/ha, scale 0 to 100 (0 no effect, 100 complete control)
Summary of the method: as §2

rice (Oryza sativa) = test: Test B flooded paddy test; details: for Plant response rating, Flood, Rice: 250 g ai/ha, flooded paddy test, visual rating on 0 to 100 scale (0 no effect, 100 complete control) after 13 to 15 days; for Plant response rating, Rice: Flood (flooded paddy test), 13 to 15 days; for Rice plant response rating: Flood, 31 g ai/ha, scale 0 to 100 (0 no effect, 100 complete control)
Summary of the method: as §2

[10] = tested on: umbrella sedge (Cyperus difformis); test: Test B flooded paddy test; details: for Plant response rating, Flood, Sedge, Umbrella: 250 g ai/ha, flooded paddy test, visual rating on 0 to 100 scale (0 no effect, 100 complete control) after 13 to 15 days; for Plant response rating, Sedge, Umbrella: Flood (flooded paddy test), 13 to 15 days; for Sedge, Umbrella plant response rating: Flood, 31 g ai/ha, scale 0 to 100 (0 no effect, 100 complete control)
Summary of the method: as §2

[11] = Postemergence, 125 g ai/ha, 0 to 100 scale where 0 is no effect and 100 is complete control
[12] = Preemergence, 125 g ai/ha, 0 to 100 scale, 0 = no effect, 100 = complete control
[13] = Preemergence, 500 g ai/ha, 0 to 100 scale, 0 = no effect, 100 = complete control
[14] = Postemergence, 500 g ai/ha, visual injury, 0 to 100 scale (0 no effect, 100 complete control), approx. ten days
[15] = 62 g ai/ha, scale of 0 to 100 where 0 is no effect and 100 is complete control
[16] = Preemergence, 125 g ai/ha, 0 to 100 scale where 0 is no effect and 100 is complete control, approximately ten days
[17] = Postemergence, 125 g ai/ha, visual injury, 0 to 100 scale (0 no effect, 100 complete control), approx. ten days
[18] = 125 g ai/ha, scale 0 to 100, 0 is no effect, 100 is complete control

Cc1c(F)cccc1-n1c(-c2ccccc2)ncc(C(=O)C2=C(O)C3CCC(C3)C2=O)c1=O (stereo not drawn) [Compound 234]
Plant response rating, Barnyardgrass [1, 11]: 80
Barnyardgrass plant response rating ([1]; Postemergence, 500 g ai/ha): 100
Plant response rating, Barnyardgrass [1, 12]: 0
Plant response rating, Barnyardgrass [1, 13]: 80
Plant response rating, Morningglory [2, 11]: 100
Morningglory plant response rating [2, 14]: 100
Plant response rating, Morningglory [2, 13]: 10
Plant response rating, Crabgrass, Large [3, 11]: 40
Crabgrass, Large plant response rating ([3]; Postemergence, 500 g ai/ha): 90
Plant response rating, Crabgrass, Large [3, 12]: 60
Plant response rating, Crabgrass, Large [3, 13]: 90
Plant response rating, Foxtail, Giant [4, 11]: 70
Foxtail, Giant plant response rating [4, 14]: 90
Plant response rating, Foxtail, Giant [4, 12]: 10
Plant response rating, Foxtail, Giant [4, 13]: 60
Plant response rating, Pigweed [5, 11]: 70
Pigweed plant response rating [5, 14]: 90
Plant response rating, Pigweed [5, 12]: 50
Plant response rating, Pigweed [5, 13]: 60
Plant response rating, Corn (corn (Zea mays); [11]): 20
Corn plant response rating (corn (Zea mays); Postemergence, 500 g ai/ha): 50
Plant response rating, Corn (corn (Zea mays); [12]): 0
Plant response rating, Corn (corn (Zea mays); [13]): 20
Plant response rating, Wheat [6, 11]: 0
Wheat plant response rating [6, 14]: 20
Plant response rating, Wheat [6, 12]: 0
Plant response rating, Wheat [6, 13]: 20
Plant response rating, Velvetleaf [7, 11]: 100
Velvetleaf plant response rating [7, 14]: 100
Plant response rating, Velvetleaf [7, 12]: 30
Plant response rating, Velvetleaf [7, 13]: 90
Plant response rating, Flood, Barnyardgrass [8]: 0
Plant response rating, Barnyardgrass [8, 15]: 0
Plant response rating, Flood, Ducksalad [9]: 70
Plant response rating, Ducksalad [9, 15]: 20
Plant response rating, Flood, Rice (rice (Oryza sativa)): 0
Plant response rating, Rice (rice (Oryza sativa); [15]): 0
Plant response rating, Flood, Sedge, Umbrella [10]: 40
Plant response rating, Sedge, Umbrella [10, 15]: 0

O=C(C1=C(O)C2CCC(C2)C1=O)c1cnc(-c2cc(F)cc(F)c2)n(-c2ccccc2)c1=O (stereo not drawn) [Compound 246]
Plant response rating, Barnyardgrass [1, 11]: 70
Barnyardgrass plant response rating ([1]; Postemergence, 500 g ai/ha): 100
Plant response rating, Barnyardgrass [1, 16]: 10
Plant response rating, Barnyardgrass [1, 13]: 100
Plant response rating, Morningglory [2, 17]: 90
Morningglory plant response rating [2, 14]: 100
Plant response rating, Morningglory [2, 16]: 20
Plant response rating, Morningglory [2, 13]: 60
Plant response rating, Crabgrass, Large [3, 11]: 70
Crabgrass, Large plant response rating ([3]; Postemergence, 500 g ai/ha): 100
Plant response rating, Crabgrass, Large [3, 16]: 100
Plant response rating, Crabgrass, Large [3, 13]: 100
Plant response rating, Foxtail, Giant [4, 17]: 80
Foxtail, Giant plant response rating [4, 14]: 100
Plant response rating, Foxtail, Giant [4, 16]: 90
Plant response rating, Foxtail, Giant [4, 13]: 90
Plant response rating, Pigweed [5, 17]: 90
Pigweed plant response rating [5, 14]: 100
Plant response rating, Pigweed [5, 16]: 100
Plant response rating, Pigweed [5, 13]: 100
Plant response rating, Corn (corn (Zea mays); [11]): 0
Corn plant response rating (corn (Zea mays); Postemergence, 500 g ai/ha): 90
Plant response rating, Corn (corn (Zea mays); [16]): 0
Plant response rating, Corn (corn (Zea mays); [13]): 50
Plant response rating, Wheat [6, 17]: 0
Wheat plant response rating [6, 14]: 50
Plant response rating, Wheat [6, 16]: 0
Plant response rating, Wheat [6, 13]: 50
Plant response rating, Velvetleaf [7, 17]: 100
Velvetleaf plant response rating [7, 14]: 100
Plant response rating, Velvetleaf [7, 16]: 90
Plant response rating, Velvetleaf [7, 13]: 100
Plant response rating, Flood, Barnyardgrass [8]: 60
Plant response rating, Barnyardgrass [8, 15]: 0
Plant response rating, Barnyardgrass [8, 18]: 20
Barnyardgrass plant response rating [8]: 0
Plant response rating, Flood, Ducksalad [9]: 100
Plant response rating, Ducksalad [9, 15]: 100
Plant response rating, Ducksalad [9, 18]: 100
Ducksalad plant response rating [9]: 85
Plant response rating, Flood, Rice (rice (Oryza sativa)): 65
Plant response rating, Rice (rice (Oryza sativa); [15]): 30
Plant response rating, Rice (rice (Oryza sativa); [18]): 65
Rice plant response rating (rice (Oryza sativa)): 0
Plant response rating, Flood, Sedge, Umbrella [10]: 100
Plant response rating, Sedge, Umbrella [10, 15]: 85
Plant response rating, Sedge, Umbrella [10, 18]: 100
Sedge, Umbrella plant response rating [10]: 0

O=C(C1=C(O)C2CCC(C2)C1=O)c1cnc(-c2ccccc2)n(C2CCOCC2)c1=O (stereo not drawn) [Compound 249]
Plant response rating, Barnyardgrass [1, 11]: 90
Barnyardgrass plant response rating ([1]; Postemergence, 500 g ai/ha): 100
Plant response rating, Barnyardgrass [1, 16]: 0
Plant response rating, Barnyardgrass [1, 13]: 40
Plant response rating, Morningglory [2, 17]: 100
Morningglory plant response rating [2, 14]: 100
Plant response rating, Morningglory [2, 16]: 30
Plant response rating, Morningglory [2, 13]: 70
Plant response rating, Crabgrass, Large [3, 11]: 90
Crabgrass, Large plant response rating ([3]; Postemergence, 500 g ai/ha): 100
Plant response rating, Crabgrass, Large [3, 16]: 40
Plant response rating, Crabgrass, Large [3, 13]: 80
Plant response rating, Foxtail, Giant [4, 17]: 80
Foxtail, Giant plant response rating [4, 14]: 90
Plant response rating, Foxtail, Giant [4, 16]: 20
Plant response rating, Foxtail, Giant [4, 13]: 40
Plant response rating, Pigweed [5, 17]: 90
Pigweed plant response rating [5, 14]: 100
Plant response rating, Pigweed [5, 16]: 80
Plant response rating, Pigweed [5, 13]: 100
Plant response rating, Corn (corn (Zea mays); [11]): 0
Corn plant response rating (corn (Zea mays); Postemergence, 500 g ai/ha): 20
Plant response rating, Corn (corn (Zea mays); [16]): 0
Plant response rating, Corn (corn (Zea mays); [13]): 0
Plant response rating, Wheat [6, 17]: 10
Wheat plant response rating [6, 14]: 50
Plant response rating, Wheat [6, 16]: 0
Plant response rating, Wheat [6, 13]: 0
Plant response rating, Velvetleaf [7, 17]: 100
Velvetleaf plant response rating [7, 14]: 100
Plant response rating, Velvetleaf [7, 16]: 60
Plant response rating, Velvetleaf [7, 13]: 90
Plant response rating, Flood, Barnyardgrass [8]: 0
Plant response rating, Barnyardgrass [8, 15]: 0
Plant response rating, Barnyardgrass [8, 18]: 0
Barnyardgrass plant response rating [8]: 0
Plant response rating, Flood, Ducksalad [9]: 90
Plant response rating, Ducksalad [9, 15]: 65
Plant response rating, Ducksalad [9, 18]: 80
Ducksalad plant response rating [9]: 0
Plant response rating, Flood, Rice (rice (Oryza sativa)): 15
Plant response rating, Rice (rice (Oryza sativa); [15]): 0
Plant response rating, Rice (rice (Oryza sativa); [18]): 0
Rice plant response rating (rice (Oryza sativa)): 0
Plant response rating, Flood, Sedge, Umbrella [10]: 90
Plant response rating, Sedge, Umbrella [10, 15]: 60
Plant response rating, Sedge, Umbrella [10, 18]: 85
Sedge, Umbrella plant response rating [10]: 0

O=C(C1=C(O)C2CCC(C2)C1=O)c1cnc(-c2ccccc2)n(CC2CCCO2)c1=O (stereo not drawn) [Compound 250]
Plant response rating, Barnyardgrass [1, 11]: 50
Barnyardgrass plant response rating ([1]; Postemergence, 500 g ai/ha): 100
Plant response rating, Barnyardgrass [1, 16]: 0
Plant response rating, Barnyardgrass [1, 13]: 40
Plant response rating, Morningglory [2, 17]: 100
Morningglory plant response rating [2, 14]: 100
Plant response rating, Morningglory [2, 16]: 10
Plant response rating, Morningglory [2, 13]: 60
Plant response rating, Crabgrass, Large [3, 11]: 60
Crabgrass, Large plant response rating ([3]; Postemergence, 500 g ai/ha): 100
Plant response rating, Crabgrass, Large [3, 16]: 30
Plant response rating, Crabgrass, Large [3, 13]: 90
Plant response rating, Foxtail, Giant [4, 17]: 90
Foxtail, Giant plant response rating [4, 14]: 100
Plant response rating, Foxtail, Giant [4, 16]: 30
Plant response rating, Foxtail, Giant [4, 13]: 60
Plant response rating, Pigweed [5, 17]: 100
Pigweed plant response rating [5, 14]: 100
Plant response rating, Pigweed [5, 16]: 60
Plant response rating, Pigweed [5, 13]: 100
Plant response rating, Corn (corn (Zea mays); [11]): 0
Corn plant response rating (corn (Zea mays); Postemergence, 500 g ai/ha): 70
Plant response rating, Corn (corn (Zea mays); [16]): 0
Plant response rating, Corn (corn (Zea mays); [13]): 0
Plant response rating, Wheat [6, 17]: 0
Wheat plant response rating [6, 14]: 20
Plant response rating, Wheat [6, 16]: 0
Plant response rating, Wheat [6, 13]: 10
Plant response rating, Velvetleaf [7, 17]: 100
Velvetleaf plant response rating [7, 14]: 100
Plant response rating, Velvetleaf [7, 16]: 50
Plant response rating, Velvetleaf [7, 13]: 90
Plant response rating, Flood, Barnyardgrass [8]: 10
Plant response rating, Barnyardgrass [8, 15]: 0
Plant response rating, Barnyardgrass [8, 18]: 10
Barnyardgrass plant response rating [8]: 0
Plant response rating, Flood, Ducksalad [9]: 75
Plant response rating, Ducksalad [9, 15]: 30
Plant response rating, Ducksalad [9, 18]: 70
Ducksalad plant response rating [9]: 30
Plant response rating, Flood, Rice (rice (Oryza sativa)): 0
Plant response rating, Rice (rice (Oryza sativa); [15]): 0
Plant response rating, Rice (rice (Oryza sativa); [18]): 0
Rice plant response rating (rice (Oryza sativa)): 0
Plant response rating, Flood, Sedge, Umbrella [10]: 70
Plant response rating, Sedge, Umbrella [10, 15]: 65
Plant response rating, Sedge, Umbrella [10, 18]: 65
Sedge, Umbrella plant response rating [10]: 0

— patent US8952024B2, “Herbicidal pyrimidone derivatives” (E I du Pont de Nemours and Company, priority 2009, dated 2015)
